The values below are quoted from earlier work in patent US8653135B1, “Alternating sympathomimetic therapy for the treatment of respiratory aliments” (Sovereign Pharmaceuticals, LLC, priority 2007, dated 2014).

The structures appear in SMILES notation.

The conditions of the data set: when given in adequate dosages.

For `CNC[C@H](O)c1cccc(O)c1` [Phenylephrine, phenylephrine], the “effect on heart rate” value is recorded as “slows the heart rate”.
